Reference: the NIST ThermoML archive (doi:10.1021/je060116w)

Conditions: Hot wire method

FC(F)CC(F)(F)F [1,1,1,3,3-pentafluoropropane]
Liquid
Conditions | thermal conductivity [W/m/K]
244.4 K | 0.1044
244.64 K | 0.1043
244.9 K | 0.1041
254.41 K | 0.1014
254.67 K | 0.1014
254.94 K | 0.1013
264.37 K | 0.09835
264.64 K | 0.0982
264.91 K | 0.0981
274.38 K | 0.09519
274.66 K | 0.09525
274.94 K | 0.09497
284.51 K | 0.09219
284.8 K | 0.09211
285.08 K | 0.09178
294.42 K | 0.08894
294.67 K | 0.08895
294.99 K | 0.08862
304.46 K | 0.08598
304.72 K | 0.08564
305.08 K | 0.08542
314.17 K | 0.0826
314.45 K | 0.08276
314.53 K | 0.08259
314.76 K | 0.08269
314.8 K | 0.08262
315.13 K | 0.08252
315.17 K | 0.08234
324.46 K | 0.0795
324.78 K | 0.07945
325.15 K | 0.07953
334.52 K | 0.07649
334.84 K | 0.0765
335.21 K | 0.0765
344.59 K | 0.07365
344.93 K | 0.07351
345.31 K | 0.07356
354.66 K | 0.07059
355 K | 0.07059
355.37 K | 0.07058
364.67 K | 0.06648
365.04 K | 0.06636
365.43 K | 0.06604
374.69 K | 0.06371
375.06 K | 0.0631
375.44 K | 0.06262
384.7 K | 0.06117
385.14 K | 0.0606
385.48 K | 0.05985
394.71 K | 0.05833
395.1 K | 0.05813
395.52 K | 0.05783
404.77 K | 0.05598
405.12 K | 0.05595
405.54 K | 0.05564
414.79 K | 0.05331
415.16 K | 0.05316
415.54 K | 0.0529

Gas
Conditions | thermal conductivity [W/m/K]
296.14 K, 121.3 kPa | 0.01256
297.06 K, 121.3 kPa | 0.01257
297.76 K, 121.3 kPa | 0.01267
305.45 K, 123.2 kPa | 0.01342
305.99 K, 123.2 kPa | 0.01345
306.63 K, 123.2 kPa | 0.01352
315.24 K, 203.4 kPa | 0.01425
315.99 K, 203.4 kPa | 0.01428
316.55 K, 203.4 kPa | 0.01435
325.29 K, 203.3 kPa | 0.0152
326.02 K, 203.3 kPa | 0.01524
326.56 K, 203.3 kPa | 0.01527
335.28 K, 291.6 kPa | 0.01607
335.96 K, 291.6 kPa | 0.0161
336.77 K, 291.6 kPa | 0.01611
345.15 K, 303 kPa | 0.01704
345.77 K, 303 kPa | 0.0171
346.5 K, 303 kPa | 0.01714
354.97 K, 738.2 kPa | 0.01782
355.04 K, 579.7 kPa | 0.01778
355.53 K, 738.2 kPa | 0.01786
355.63 K, 579.7 kPa | 0.01782
356.17 K, 738.2 kPa | 0.0179
356.29 K, 579.7 kPa | 0.01791
364.88 K, 954.5 kPa | 0.01876
365.05 K, 617.9 kPa | 0.01865
365.4 K, 954.5 kPa | 0.01875
365.61 K, 617.9 kPa | 0.01873
365.96 K, 954.5 kPa | 0.0189
366.24 K, 617.9 kPa | 0.01878
374.84 K, 1243 kPa | 0.01982
374.99 K, 997 kPa | 0.01966
375.13 K, 604.2 kPa | 0.01956
375.31 K, 1243 kPa | 0.01995
375.48 K, 997 kPa | 0.01969
375.71 K, 604.2 kPa | 0.01959
375.83 K, 1243 kPa | 0.02001
376.05 K, 997 kPa | 0.01976
376.31 K, 604.2 kPa | 0.01963
384.79 K, 1489.1 kPa | 0.0211
385.04 K, 998.9 kPa | 0.02061
385.2 K, 598.1 kPa | 0.02052
385.21 K, 1489.1 kPa | 0.02101
385.55 K, 998.9 kPa | 0.02067
385.68 K, 1489.1 kPa | 0.02112
385.76 K, 598.1 kPa | 0.02059
386.13 K, 998.9 kPa | 0.02072
386.35 K, 598.1 kPa | 0.0206
394.74 K, 1765.3 kPa | 0.02246
394.9 K, 1498.3 kPa | 0.02208
395.07 K, 602.5 kPa | 0.02148
395.09 K, 1004.6 kPa | 0.02149
395.16 K, 1765.3 kPa | 0.02251
395.36 K, 1498.3 kPa | 0.02216
395.52 K, 1765.3 kPa | 0.02258
395.58 K, 602.5 kPa | 0.02153
395.6 K, 1004.6 kPa | 0.02161
395.75 K, 1498.3 kPa | 0.02218
395.94 K, 602.5 kPa | 0.02147
396.04 K, 1004.6 kPa | 0.02168
404.55 K, 2269.8 kPa | 0.02483
404.75 K, 1999.2 kPa | 0.02362
404.85 K, 1500.7 kPa | 0.02277
404.89 K, 2269.8 kPa | 0.02475
405 K, 998.4 kPa | 0.02248
405.12 K, 604.3 kPa | 0.02248
405.14 K, 1999.2 kPa | 0.02364
405.29 K, 2269.8 kPa | 0.02484
405.3 K, 1500.7 kPa | 0.02285
405.48 K, 998.4 kPa | 0.02253
405.55 K, 1999.2 kPa | 0.02369
405.62 K, 604.3 kPa | 0.02249
405.78 K, 1500.7 kPa | 0.02302
406.02 K, 998.4 kPa | 0.0227
406.18 K, 604.3 kPa | 0.02253
414.76 K, 2496.6 kPa | 0.02664
414.88 K, 1998 kPa | 0.02456
415.04 K, 995.9 kPa | 0.02342
415.04 K, 1502.2 kPa | 0.02374
415.15 K, 604.1 kPa | 0.02337
415.25 K, 2496.6 kPa | 0.02694
415.45 K, 1998 kPa | 0.0246
415.64 K, 604.1 kPa | 0.02346
415.64 K, 1502.2 kPa | 0.02378
415.66 K, 2496.6 kPa | 0.02696
415.68 K, 995.9 kPa | 0.02355
415.92 K, 1998 kPa | 0.02467
416.18 K, 1502.2 kPa | 0.02399
416.19 K, 604.1 kPa | 0.02348
416.22 K, 995.9 kPa | 0.0236
